Experimental findings from ChEMBL document CHEMBL2448688, “Selection and optimization of hits from a high-throughput phenotypic screen against Trypanosoma cruzi. Exported from HEOS 25-Oct-2013. See also related datasets CHEMBL3137440 and CHEMBL3137386” are described below.

In brackets after ≈: the same amount, converted by molar mass. Several values for one entry are separate records, joined by “and”; a condition that tells them apart may be missing. Equal entries are not always repeated.

Data set [1] relates to Trypanosoma cruzi. Description: (§1) DNDI: Chagas in Vitro. The class given is functional, organism-based, Tulahuen C4 (LacZ).
The test system of data set [2] is Trypanosoma cruzi. The data set is described as §1. The class given is functional, Tulahuen C4 (LacZ).
The nature of data set [3]: DNDI: Cytotoxicity in vitro, against rat skeletal myoblast (L-6) cells. As to conditions: L-6 cells (skeletal myoblasts), IC50.
Data set [4] is described as follows: in vitro. As to conditions: human, microsomes.
Data set [5] in a line: in vitro. The note with it: human, microsomes, t (1 / 2).
Data set [6] is described as follows: DNDI: Lipophilicity (gLogD) at pH 3. As to conditions: buffer, pH 3, logD.
Data set [7] is described as follows: DNDI: Solubility in 0.01M HCl at pH 2 determined by nephelometry. As to conditions: 0.01M HCl, pH 2, Kinetic.
Data set [8] is described as follows: DNDI: Lipophilicity (gLogD) at pH 7.4. As to conditions: buffer, pH 7.4, logD.
A short description of data set [9]: DNDI: Solubility in phosphate buffer at pH 6.5 determined by nephelometry. The note with it: phosphate buffer, pH 6.5, Kinetic.
Data set [10] can be described thus: in vitro. As to conditions: human, microsomes, EH.
Data set [11] deals with Cytochrome P450 3A4 (Homo sapiens, UniProt P08684). Description: DNDI: Human CYP3A4 inhibition determined using 6b-hydroxylation of testosterone.
Setting [12] is: Trypanosoma cruzi, Tulahuen C4 (LacZ).

Sequence of Cytochrome P450 3A4 (P08684 whole entry): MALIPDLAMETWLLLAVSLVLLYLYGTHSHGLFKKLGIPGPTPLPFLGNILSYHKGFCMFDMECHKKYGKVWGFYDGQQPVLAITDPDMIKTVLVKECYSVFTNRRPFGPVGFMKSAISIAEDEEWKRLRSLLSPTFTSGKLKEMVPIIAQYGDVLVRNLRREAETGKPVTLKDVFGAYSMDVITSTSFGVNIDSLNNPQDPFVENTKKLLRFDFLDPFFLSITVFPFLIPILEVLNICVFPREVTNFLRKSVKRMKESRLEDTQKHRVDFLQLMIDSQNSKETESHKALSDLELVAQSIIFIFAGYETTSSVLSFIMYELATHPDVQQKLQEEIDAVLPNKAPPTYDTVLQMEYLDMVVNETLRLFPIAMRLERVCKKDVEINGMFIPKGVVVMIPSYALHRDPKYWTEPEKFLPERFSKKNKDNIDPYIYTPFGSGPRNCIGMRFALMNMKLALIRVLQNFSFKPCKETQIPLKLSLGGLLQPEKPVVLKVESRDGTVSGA

Turning to `CCN(Cc1cccnc1)c1ccc(-c2nc3ccccc3s2)cc1`, the IC50 in data set [1] (setting [12]) came to 351 nM; in [3], 54.5 µM. This molecule returned an IC90 in data set [2] (setting [12]) of 632 nM.
Regarding `CO/N=C(\C)c1ccc(-n2ccnc2)c(NC(=O)c2cc(-c3ccccc3)cs2)c1`, the IC50 in data set [3] is more than 100 µM.
With `CC(=O)N(Cc1cnc[nH]1)c1cc(F)cc(-c2nc3ccccc3s2)c1`, the figures for the IC50 in data set [1], in data set [1] (setting [12]) and in [3] were 534 nM, 486 nM and more than 100 µM, respectively. For the same molecule, the IC90 in data set [2] is more than 1000 nM; in data set [2] (setting [12]), 941 nM.
`CC(=O)N(Cc1c[nH]cn1)c1ccc(-c2ccc(F)cc2)cc1F` showed an IC50 in data set [3] of 69.9 µM.
For the molecule `O=C(C1CC1)N(Cc1cccnc1)c1cncc(-c2nc3ccccc3s2)c1`, the IC50 in data set [1] (setting [12]) worked out at 12.9 nM. This molecule came in with an IC90 in [2] (setting [12]) of 34 nM.
Turning to `Cc1ccc(-n2ccnc2)c(NC(=O)c2cnc(-c3ccccc3)s2)c1`, the results for the IC50 in [1] (setting [12]) and in data set [3] were 1.98 nM and 86.6 µM, respectively. The molecule further yielded a microsomal CLint in data set [4] of 109 µL/min/mg. For the same molecule, in data set [5], the half-life is 16 min. In addition, the chromatographic logD in data set [6] came out at 1.8; in [8], 3. Further, the kinetic solubility in data set [7] was more than 100 µg/mL. In [2] (setting [12]), this molecule displayed an IC90 of 15 nM.
With `O=C(C1CC1)N(Cc1cccnc1)c1cc(F)cc(-c2nc3ccccc3s2)c1`, the IC50 amounted to 20 nM in [1] (setting [12]) and 76.9 µM in data set [3]. The same molecule showed a microsomal CLint in data set [4] of 1320 µL/min/mg. This molecule had a half-life in [5] of 1.3 min. For the same molecule, the chromatographic logD in data set [6] stood at 3.04; in data set [8], 4.49. Moreover, the kinetic solubility is 66.9 µg/mL (≈ 166 µM) in data set [7] and 6.65 µg/mL (≈ 16.5 µM) in [9]. This molecule returned an IC90 in data set [2] (setting [12]) of 62.5 nM.
As for `CO/N=C(\C)c1ccc(-n2ccnc2)c(NC(=O)c2sc(-c3ccccc3)nc2C)c1`, the values for the IC50 in data set [1] (setting [12]) and in [3] were 67.5 nM and more than 100 µM, respectively. The same molecule yielded a microsomal CLint in data set [4] of 18 µL/min/mg. In addition, the half-life in [5] amounted to 97 min. Further, the values for the chromatographic logD in data set [6] and in data set [8] were 2.3 and 3.5, respectively. In data set [7], the solubility (kinetic) is more than 100 µg/mL. The IC90 in [2] (setting [12]) amounted to 204 nM.
For the molecule `O=C(NCCc1c[nH]cn1)c1ccc(-c2ccccc2)cc1`, the IC50 was 306 nM in [1] (setting [12]) and more than 100 µM in data set [3].
In the case of `CC(C)Cc1ccc(-n2ccnc2)c(NC(=O)c2cnc(-c3ccccc3)s2)c1`, the IC50 was 0.22 nM and 0.2 nM and 0.19 nM in data set [1]; less than 0.14 nM in data set [1] (setting [12]). Further, the microsomal CLint in data set [4] came out at 157 µL/min/mg. Also, the half-life in data set [5] was determined as 11 min. For the same molecule, the chromatographic logD in data set [6] is 2.8; in data set [8] it was 3.9. Moreover, the figures for the kinetic solubility in [7] and in [9] were more than 100 µg/mL and less than 1.6 µg/mL, respectively.
On to `CS(=O)(=O)c1ccc(-n2ccnc2)c(NC(=O)c2cnc(-c3ccccc3)s2)c1`, for which the IC50 was 59.7 nM in [1] (setting [12]) and more than 100 µM in data set [3]. For the same molecule, the IC90 in [2] (setting [12]) was more than 100 nM.
In the case of `NCC(=O)N(Cc1cccnc1)c1ccc(-c2nc3ccccc3s2)cc1`, in data set [1] (setting [12]), 17 nM corresponded to half-maximal inhibition (IC50). Further, the IC90 in data set [2] is 64 nM and 625 nM.
Consider `O=C(Nc1ccccc1-n1ccnc1)c1cnc(-c2ccccc2)s1`, for which the IC50 in [1] was 3.2 nM and 3.8 nM; in [1] (setting [12]), 4.9 nM. Moreover, the IC90 in [2] (setting [12]) was 10 nM.
For `CS(=O)(=O)N(Cc1cccnc1)c1ccc(-c2nc3ccccc3s2)cc1`, the IC50 in data set [1] (setting [12]) is 40.5 nM; in [3] it was more than 100 µM. This molecule also gave an IC90 in [2] (setting [12]) of 91 nM.
As for `CO/N=C(\C)c1ccc(-n2ccnc2)c(NC(=O)c2ccc(-c3ccccn3)cc2)c1`, the IC50 in data set [1] (setting [12]) was more than 1000 nM; in data set [3], more than 100 µM. For the same molecule, in data set [2] (setting [12]), the IC90 is more than 1000 nM.
As for `CO/N=C(\C)c1ccc(-n2ccnc2)c(NC(=O)c2ccc(-c3cccs3)nc2)c1`, the figures for the IC50 in data set [1] (setting [12]), in [11] and in data set [3] were 2.7 nM, 1400 nM and more than 100 µM, respectively. The molecule also showed a microsomal CLint in data set [4] of 102 µL/min/mg. The half-life in data set [5] worked out at 17 min. Also, the chromatographic logD in data set [6] amounted to 2.4; in [8], 3.2. Further, the kinetic solubility in data set [7] is more than 100 µg/mL. The hepatic extraction ratio in [10] was determined as 0.8. Moreover, the IC90 in data set [2] (setting [12]) was found to be 9.5 nM.
Molecule `CC(=O)N(Cc1cccnc1)c1ccc(-c2ccc(F)cc2)cc1F` came in with an IC50 in [1] (setting [12]) of 53.5 nM. Further, it took 184 nM to reach the 90% level in [2] (setting [12]) (IC90).
